Test results published in article PMC3242765, “Inhibitors of Alphavirus Entry and Replication Identified with a Stable Chikungunya Replicon Cell Line and Virus-Based Assays” (PLoS ONE, 2011).
“And” between values parts separate entries of the source, which are not always exact repeats. Equal values may be shown once. Where a name gives a salt, the structure may show the parent alone.

Assays:
CHIKV replicon = test: microbe, parasite or virus in culture; type: cell-based, Chikungunya virus (CHIKV)

SMILES	CHIKV replicon % left (CHIKV replicon)	SFV replication % left (surviving fraction, remaining percentage of SFV replication) (SFV-Rluc)
CC(=O)Nc1ccccc1 [Acetanilide]	92.2%	57.3%
O=c1cc(-c2ccc(O)c(O)c2)oc2cc(O)cc(O)c12 [Luteolin]	95.0%	71.3%
CCCCNc1ccc(C(=O)OCCN(C)C)cc1 [p-Butylaminobenzoyldimethylaminoethanol]	77.1%	45.4%
CN(C)CCOC(c1ccccc1)c1ccccc1 [Diphenhydramine hydrochloride]	194.3%	41.0%
CN(C)CC/C=C1/c2ccccc2Sc2ccc(Cl)cc21 [Chlorprothixene hydrochloride]	78.2%	90.3%
O=C(/C=C/c1ccc(O)c(O)c1)O[C@H](Cc1ccc(O)c(O)c1)C(=O)O [Rosmarinic acid]	98.8%	120.3%
C[C@H](CCC(=O)O)[C@H]1CC[C@H]2[C@@H]3CC[C@@H]4C[C@H](O)CC[C@]4(C)[C@H]3C[C@H](O)[C@]12C [Deoxycholic acid]	100.8%	86.5%
Cc1cc(=O)oc2cc(O)ccc12 [Methylumbelliferone]	21.1%	12.0%
Cc1c(N)c(=O)n(-c2ccccc2)n1C [4-Aminoantipyrine [ampyrone]]	89.2%	51.6%
Nc1ccc(S(=O)(=O)Nc2ccccn2)cc1 [Sulfapyridine]	79.9%	95.0%
CCCCCCCCCCCCCCCC[N+](C)(C)C [Cetrimonium bromide]	80.5%	75.0%
O=C(O)c1ccc(O)c(O)c1 [3,4-Dihydroxybenzoic acid]	101.6%	124.5%
COc1ccccc1OCC(O)CO (stereo not shown) [Guaifenesin]	82.7%	124.5%
CN[C@H](C)[C@@H](O)c1ccc(O)cc1 [p-Hydroxyephedrine]	100.6%	94.4%
CC(C)(C)NC[C@H](O)COc1nsnc1N1CCOCC1 [Timolol maleate]	100.6%	129.1%
CC(C)NCC(O)COc1cccc2[nH]ccc12 (stereo not shown) [Pindolol]	72.1%	86.2%
CCN(CC)C(C)CN1c2ccccc2Sc2ccccc21 (stereo not shown) [Ethopropazine hydrochloride]	59.8%	20.1%
Nc1ccc(C(=O)O)cc1 [p-Aminobenzoic acid]	105.4%	56.5%
O=C(O)c1ccc(O)cc1O [2,4-Dihydroxylbenzoic acid]	29.5%	32.1%

SMILES	CHIKV replicon % left (CHIKV replicon)	SFV replication % left (surviving fraction, remaining percentage of SFV replication) (SFV-Rluc)
O=C(O)c1ccccc1 [Benzoic acid]	99.1%	71.6%
COC(=O)c1cc(O)c(O)c(O)c1 [Methyl gallate]	100.7%	67.8%
CC(CN1c2ccccc2Sc2ccccc21)N(C)C (stereo not shown) [Promethazine hydrochloride]	39.2%	48.8%
Cc1cc(=O)oc2cc(O)cc(O)c12 [5,7-Dihydroxy-4-methylcoumarin]	78.1%	66.7%
C#C[C@]1(O)CC[C@H]2[C@@H]3CCc4cc(O)ccc4[C@H]3CC[C@@]21C [17 -a-ethynylestradiol]	59.8%	11.7%
O=c1ccc2ccccc2o1 [Coumarin]	85.0%	68.8%
O=C1Nc2ccc(Cl)cc2C(c2ccccc2)=NC1O (stereo not shown) [Oxazepam]	80.3%	79.1%
CCC(CN(C)C)(CN(C)C)OC(=O)c1ccccc1.Cl [Amydricaine hydrochloride]	74.3%	43.4%
O=c1ccc2ccc(O)c(O)c2o1 [Daphnetin]	103.7% and 92.1%	90.6% and 81.7%
CCNCC(O)c1ccc(O)cc1 (stereo not shown) [1-(4-Oxyphenyl)-1-oxy-2-ethylamonoethane]	105.4%	86.9%
CCC(NC(C)C)C(O)c1ccc(O)c(O)c1 (stereo not shown) [Isoetharine]	100.4%	90.7%
CNC(C)(C)Cc1ccccc1 [Mephentermine sulfate]	70.1%	81.8%
CC(=O)Nc1ccc(S(N)(=O)=O)cc1 [N-Acetylsulfanilamide]	104.1%	63.2%
CC(C)NCC(O)c1ccc2ccccc2c1 (stereo not shown) [Pronethalol]	29.9%	62.9%
COc1ccc2ccc(=O)oc2c1 [Herniarin]	102.2%	53.2%
[H]/N=C(/N)NS(=O)(=O)c1ccc(N)cc1 [Sulfaguanidine]	62.1%	63.5%
O=c1c(O)c(-c2ccc(O)cc2)oc2cc(O)cc(O)c12 [Kaempferol]	11.5%	2.9%
CC(C)(C)NCC(O)COc1cccc2c1CCC(=O)N2 (stereo not shown) [Carteolol hydrochloride]	78.1%	67.2%
O=c1c(O)c(-c2ccc(O)c(O)c2)oc2cc(O)cc(O)c12 [Quercetin]	110.2%	125.8%

SMILES	CHIKV replicon % left (CHIKV replicon)	SFV replication % left (surviving fraction, remaining percentage of SFV replication) (SFV-Rluc)
O.O.O.O=c1ccc2cc(O[C@@H]3O[C@H](CO)[C@@H](O)[C@H](O)[C@H]3O)c(O)cc2o1.O=c1ccc2cc(O[C@@H]3O[C@H](CO)[C@@H](O)[C@H](O)[C@H]3O)c(O)cc2o1 [Esculin sesquihydrate]	102.6%	95.0%
CCNCC(O)c1cccc(O)c1 (stereo not shown) [Etilefrin]	87.1%	116.8%
CCCC(C)C1(CC)C(=O)NC(=O)NC1=O (stereo not shown) [Pentobarbital]	104.3%	70.5%
CC(C)NCC(O)c1ccc(Cl)c(Cl)c1.Cl (stereo not shown) [Dichloroisoproterenol hydrochloride]	69.2%	49.6%
Cc1noc(NS(=O)(=O)c2ccc(N)cc2)c1C [Sulfisoxazole]	104.5%	91.4%
CCC1(c2ccccc2)C(=O)NC(=O)NC1=O [Phenobarbital]	43.2%	58.6%
O=C(O)c1ccccc1C(=O)Nc1ccc(S(=O)(=O)Nc2nccs2)cc1 [Phthalylsulfathiazole]	100.5%	113.7%
CCCCC1C(=O)N(c2ccccc2)N(c2ccccc2)C1=O [Phenylbutazone]	100.5%	96.7%
O=C(O)c1cccc(O)c1O [2,3-Dihydroxybenzoic acid]	105.1%	93.1%
COc1cnc(NS(=O)(=O)c2ccc(N)cc2)nc1 [Sulfameter]	79.2%	99.0%
CC(CN(C)C)CN1c2ccccc2Sc2ccccc21.CC(CN(C)C)CN1c2ccccc2Sc2ccccc21.O=C(O)C(O)C(O)C(=O)O (stereo not shown) [Trimeprazine tartrate]	100.5%	120.4%
O=C(O)c1cc(O)c(O)c(O)c1 [Gallic acid]	88.9%	148.8%
CC(=O)CC(c1ccccc1)c1c(O)c2ccccc2oc1=O (stereo not shown) [3-(a-Acetonylbenzyl)-4-hydroxycoumarin]	57.2%	79.5%
Cc1nnc2n1-c1ccc(Cl)cc1C(c1ccccc1Cl)=NC2 [Triazolam]	40.1%	76.5%
Oc1cccc(O)c1 [Resorcin]	72.2%	83.0%
CNC1=Nc2ccc(Cl)cc2C(c2ccccc2)=[N+]([O-])C1 [Chlordiazepoxide]	100.6%	54.3%
COc1cc(NS(=O)(=O)c2ccc(N)cc2)nc(OC)n1 [Sulfadimethoxine]	39.1%	102.4%
COc1cc(-c2[o+]c3cc(O)cc(O[C@@H]4O[C@H](CO)[C@@H](O)[C@H](O)[C@H]4O)c3cc2O[C@@H]2O[C@H](CO)[C@@H](O)[C@H](O)[C@H]2O)cc(OC)c1O.[Cl-] [Malvin chloride]	72.3%	15.4%
